The assay is described as follows: Effective concentration required to stimulate Adenylate cyclase.

SMILES strings stand for the structures.

For orientation: EC50 means the concentration needed to bring the measured effect to its halfway point. High values mean a need for much substance, low ones an effect from little substance.

In turn, `Cc1ccc([C@H]2CNCCc3cc(O)c(O)cc32)cc1` returned a concentration giving a half-maximal response (EC50) of 210 nM.

The values above are taken from BindingDB's records for doi:10.1021/jm00170a025 (Royal Danish School of Pharmacy, 1990).
